# Data taken from publication PMC4265539, “Inhibition of Neutrophil Collagenase/MMP-8 and Gelatinase B/MMP-9 and Protection against Endotoxin Shock” (Journal of Immunology Research, 2014).
# Where two headings read alike, the source gives them in different places. Non-standard residues stand in square brackets, D forms with d. Residues, ends and D or L forms follow the SMILES beside them. No end group written: not given here. Bip = N[C@@H](Cc1ccc(-c2ccccc2)cc1)C(=O)O; d3Pal = N[C@H](Cc1cccnc1)C(=O)O
# How the values were obtained:
# [1] = test system: MMP-9; details: cited from earlier work
# Source text: Table 1 Peptide sequences and their IC50 values in μM against target enzymes. | column: MMP-9
# [2] = mouse, in vivo, ip, 150 mg/kg
# Method: (§2) The concentration of P2-BSA that was used to coat the plates and the reagent concentration of the P2-specific polyclonal antibody were optimized by two-dimensional serial dilution tests. 96-well microtiter plates were coated with a solution of 6 μg/mL P2-BSA in 0.05 M sodium bicarbonate (pH 9.6) and the plate was kept overnight at 4°C. After washing the plate three times, the plate was blocked with 0.1 M PBS (pH 7.4) containing 10% (V/V) skim milk at 37°C for 1.5 h. To perform the competition ELISA between P2 and the immobilized P2-BSA, P2-specific antibody (1000 times serum dilution) was added to the wells in the presence of plasma or standard samples at 37°C for 1.5 h. After washing the plate three times, 100 μL of horseradish peroxidase-conjugated goat anti-rabbit IgG (1 : 2000) was added and incubated for 1 h at 37°C. After washing three times, the tetramethylbenzidine (TMB) substrate (100 μL/well) was added and the reaction was executed for 15 min. The reactions were stopped with 2 M sulfuric acid (50 μL/well). The absorbance of each well at 450 nm was detected with an automated ELISA reader. The calibration curve was expressed according to the fact that 1-B/B0 are linear with log C (where B0 is the OD value in the absence of P2 in plasma, B is the OD value at serial concentrations of P2 in plasma, and C is the P2 concentration, resp.). The indirect ELISA procedures were conducted in duplicate with a set of standard concentrations of P2 in diluted mouse serum in order to determine the mathematical fitting equation and linear detection range.
# (§3) Adult female Swiss mice, 5 animals per group, were used for the pharmacokinetic studies. P2 (90 mg/kg, 30 mg/kg, or 10 mg/kg) was dissolved in sterile 0.9% saline and was administered intravenously. Blood samples were collected through the canthus at 0, 3, 6, 9, 12, 15, and 30 min. For intraperitoneal injection of P2, 150 mg/kg P2 dissolved in 0.9% saline was administered and blood samples were collected through the canthus at 0, 13, 20, 40, 68, 100, 127, and 168 minutes.
# (§4) Blood samples were immediately centrifuged (12000 rpm for 30 seconds), and the supernatants were taken and diluted 10, 30, or 300 times with PBS, prewarmed at 80°C in a water bath. The diluted samples were kept at 80°C for another 30 min to remove enzyme activity of the plasma components. Samples were diluted with prewarmed PBS so that the final concentration of P2 was within the linear range of the standard line. After another centrifugation (12000 rpm for 2 min), the diluted samples were analyzed by ELISA to measure the plasma P2 concentrations.
# [3] = mouse, in vivo
# Method: as §2, §3, §4
# [4] = test system: Swiss mice, LPS endotoxin shock; assay: Endotoxin shock mouse model, survival after LPS challenge; type: in vivo
# Method: (§1) The protective effect of all inhibitors was evaluated in a similar way. P2 (90 mg/kg P2) was used at a similar molar concentration as Regasepin 2. The effect of lower dosages of P2 (30 mg/kg and 10 mg/kg) was also evaluated in parallel experiments. The details of the animal experiments, including grouping of mice, number of mice in each group, reagent concentrations, and ways of administration, are shown in Table 2. The peptides were administered intravenously 5 minutes after LPS injection.
# The protective effects via intravenous injection were evaluated in groups of 6 mice, intravenously injected with 100 μL (7 mg/mL; 35 mg/kg) Regasepin 2 or Inhibitor 2 (35 mg/kg) 5 minutes after intravenous injection of LPS (200 μg per mouse). The numbers of surviving mice were recorded regularly after LPS administration. Kaplan-Meier survival curves were generated. P values were calculated compared with the survival rates of the negative control group. The experiments were performed two times.
# Regasepin 2 via intravenous injection (35 mg/kg) was used as a positive control peptide. 200 μL P2 (15 mg/mL) was administered intraperitoneally (150 mg/kg) 30, 60, or 90 minutes before intravenous LPS challenge (200 μg per mouse) to evaluate the effect of P2 via this administration route. The protective effects of a single intravenous injection of P2 (10 mg/kg) and two times intravenous administration of P2 (10 mg/kg) with 2 hours interval were also included and compared.
# Results were represented as mean ± SD. Statistical significance was assessed using statistics software SPSS13.0. Two-way analysis of variance (ANOVA) was used to test for differences between groups. For all statistical comparisons, positive groups were compared with negative controls, and ^* P < 0.05 or ^** P < 0.01 were considered statistically significant.
# [5] = test system: MMP-8; details: cited from earlier work
# Source text: Table 1 Peptide sequences and their IC50 values in μM against target enzymes. | column: MMP-8
# [6] = test system: TACE; details: cited from earlier work
# Source text: Table 1 Peptide sequences and their IC50 values in μM against target enzymes. | column: TACE
# [7] = rat; cited from earlier work
# Source text: The pharmacokinetics of P2 by intraperitoneal injection was also investigated.
# [8] = test system: Swiss mice, LPS endotoxin shock; details: 100 μL (7 mg/mL), 35 mg/kg iv 5 minutes after iv LPS, ref [9]; cited from earlier work
# Method: as §1, with “ea ...” for “each group, reagent concentrations, and ways of administration, are shown in Table 2. The peptides were administered intravenously 5 minutes after LPS injection.”
compound,measurement,setting,value
CC[C@H](C)[C@H](NC(=O)CNC(=O)CNC(=O)CNC(=O)CNC(=O)[C@H](CCC(=O)O)NC(=O)CNC(=O)[C@H](CCCNC(=N)N)NC(=O)[C@H](Cc1ccc(-c2ccccc2)cc1)NC(=O)[C@@H](CS)NC(=O)[C@@H](Cc1cccnc1)NC(=O)[C@@H]1CCCN1)C(=O)N[C@H](C(=O)N[C@@H](CCCNC(=N)N)C(=O)N[C@@H](CCCNC(=N)N)C(=O)N[C@@H](C)C(=O)N[C@@H](CC(=O)O)C(=O)N[C@@H](CCCNC(=N)N)C(=O)N[C@@H](C)C(=O)N[C@@H](C)C(=O)N[C@H](C(=O)N1CCC[C@H]1C(=O)O)C(C)C)C(C)C [P2] (H-P[d3Pal][dC][Bip]RGEGGGGIVRRADRAAVP-OH; N-terminus and C-terminus assumed),IC50,[1]; ref [10],1.36 µM
same,level at time molar at 100 min,[2],1540 nM
same,Time at which the peak plasma level was reached,"[3]; ip, 150 mg/kg",≤ 13 min
same,Time an effective P2 concentration (above 2 μM) remained in plasma,"[3]; iv, 10 mg/kg",6 min
same,Time the effective plasma concentration of P2 lasted,"[3]; iv, 90 mg/kg",less than 30 minutes
same,Survival after two injections (G3) versus single injection (G2),"[4]; 10 mg/kg iv 5 minutes after LPS iv and again 2 hours later, n = 12, Figure 4(a) G3",less mice survived
same,Survival versus LPS-treated control group,"[4]; single 10 mg/kg iv 5 minutes after LPS iv, n = 12, Figure 4(a) G2",significant difference with the LPS-treated control group
same,IC50,[5]; ref [10],0.35 µM
same,IC50,[6]; ref [10],1.95 µM
IVRRADRAAVP [ES-2],IC50,[1]; ref [10],> 500 µM
same,IC50,[5]; ref [10],> 500 µM
same,IC50,[6]; ref [10],> 500 µM
IVRRADRAAVPGGGGRGD [HM-3],in vivo half-life,[7],27 min
PRC[Bip]CGE (cysteine pairing not given here) [Regasepin 1],IC50,[1]; ref [8],1.5 µM
same,IC50,[5]; ref [8],3 µM
same,IC50,[6]; ref [8],5 µM
Pro-(D-Pyr)-(D-Cys)-Bip-Arg-Gly-Glu [Inhibitor 2],IC50,[1]; ref [11],2.75 µM
same,IC50,[5]; ref [11],0.8 µM
same,IC50,[6]; ref [11],5.5 µM
Pro-Pyr-Cys-Bip-Arg-Gly-Glu [Regasepin 2],IC50,[1]; ref [9],0.8 µM
same,"Protective effect (survival), positive control","[4]; 35 mg/kg iv 5 minutes after LPS iv, n = 12, Figures 4(b)-4(d)",significant protective effect
same,IC50,[5]; ref [9],10 µM
same,Protection from endotoxin shock,[8],protect mice from endotoxin shock
same,IC50,[6]; ref [9],1.5 µM
